Values of other authors as cited in patent publication US7147875B2, “Method and composition for relieving symptoms of arthritis and gout using fruit of miracles” (priority 2004, dated 2006).

Compound: COc1cc2c(c(OC)c1OC)-c1ccc(OC)c(=O)cc1[C@@H](NC(C)=O)CC2 [colchicine]
- Time until the pain is completely relieved (from starting treatment): 48 h
- Time until the pain subsides (from starting treatment): ≤ 12 h
- Reducing pain, swelling and inflammation associated with acute gout attacks (in vivo): effective
- Uric acid levels in the bloodstream (in vivo): does not decrease
